Experimental data: PMC7312435, “Direct inhibition of the TLR4/MyD88 pathway by geniposide suppresses HIF‐1α‐independent VEGF expression and angiogenesis in hepatocellular carcinoma” (British Journal of Pharmacology, 2020)

Target: T1, recombinant human TLR4 (Homo sapiens, UniProt O00206)
T1 construct: amine-coupled to CM5 chip
Experiment: surface plasmon resonance (Biacore X100), steady-state fit
Format: binding
Settings: PBS with 0.05% Triton X-100, pH 7.4; geniposide 0-12.8 uM; TLR4 immobilised on CM5 chip (1,300 RU)

T1 sequence (O00206 24-839): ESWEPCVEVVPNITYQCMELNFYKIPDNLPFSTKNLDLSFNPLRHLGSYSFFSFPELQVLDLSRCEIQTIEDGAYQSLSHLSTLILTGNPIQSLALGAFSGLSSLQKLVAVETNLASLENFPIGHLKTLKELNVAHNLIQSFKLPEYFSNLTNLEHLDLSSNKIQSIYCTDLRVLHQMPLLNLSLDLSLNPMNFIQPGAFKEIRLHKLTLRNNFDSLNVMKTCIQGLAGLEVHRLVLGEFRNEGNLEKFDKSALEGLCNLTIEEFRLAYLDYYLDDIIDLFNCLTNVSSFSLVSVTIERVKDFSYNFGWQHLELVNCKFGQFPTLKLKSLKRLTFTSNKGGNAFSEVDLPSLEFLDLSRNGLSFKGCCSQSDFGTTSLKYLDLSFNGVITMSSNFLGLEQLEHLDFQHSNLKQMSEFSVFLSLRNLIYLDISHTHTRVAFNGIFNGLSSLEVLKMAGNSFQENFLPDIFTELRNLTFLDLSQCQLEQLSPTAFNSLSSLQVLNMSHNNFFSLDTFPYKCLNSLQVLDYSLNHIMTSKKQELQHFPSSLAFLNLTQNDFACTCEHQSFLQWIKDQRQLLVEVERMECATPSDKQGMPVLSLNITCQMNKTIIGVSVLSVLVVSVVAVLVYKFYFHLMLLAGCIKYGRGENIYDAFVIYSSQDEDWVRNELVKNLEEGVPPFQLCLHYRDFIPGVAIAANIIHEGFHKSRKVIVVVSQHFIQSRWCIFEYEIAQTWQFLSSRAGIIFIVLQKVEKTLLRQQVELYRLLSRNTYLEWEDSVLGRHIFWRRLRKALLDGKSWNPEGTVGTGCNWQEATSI

COC(=O)C1=CO[C@@H](O[C@@H]2O[C@H](CO)[C@@H](O)[C@H](O)[C@H]2O)[C@@H]2C(CO)=CC[C@H]12 [geniposide]
K D: 6.716e^−6 M
